Results published in ChEMBL document CHEMBL1129116, “Synthesis of cephems bearing olefinic sulfoxide side chains as potential -lactamase inhibitors” (1996).
≈ marks a conversion by molar mass, not a printed value.

What was measured:
Type in all cases: functional
Staphylococcus aureus [1] = test: Antibacterial activity of compound was measured against Staphylococcus aureus (MR) A20699 organism
Klebsiella pneumoniae = test: Antibacterial activity of compound was measured against Klebsiella pneumoniae A9432 organism
Escherichia coli = test: Antibacterial activity of compound was measured against Escherichia coli A15119 organism
Staphylococcus aureus [2] = test: Antibacterial activity of compound was measured against Staphylococcus aureus A9537 organism
Staphylococcus aureus [3] = test: Antibacterial activity of compound was measured against Staphylococcus aureus (MR) CEF1198 organism

SMILES | MIC (Staphylococcus aureus [1]) [mg/L] | MIC (Klebsiella pneumoniae) [mg/L] | MIC (Escherichia coli) [mg/L] | MIC (Staphylococcus aureus [2]) [mg/L] | MIC (Staphylococcus aureus [3]) [mg/L]
CS(=O)(=O)/C=C/C1=C(C(=O)O)N2C(=O)[C@@H](NC(=O)Cc3cccs3)[C@H]2SC1 | 4 (≈ 9.33 µM) | 0.5 (≈ 1.17 µM) | 0.5 (≈ 1.17 µM) | 0.06 (≈ 0.14 µM) | 0.5 (≈ 1.17 µM)
COc1cccc(OC)c1C(=O)N[C@@H]1C(=O)N2[C@@H]1SC(C)(C)[C@@H]2C(=O)O [METHICILLIN] | 32 (≈ 84.1 µM) | > 128 | > 128 | 0.5 (≈ 1.31 µM) | 32 (≈ 84.1 µM)

Next, values leading:

MIC (Staphylococcus aureus [1]) [mg/L] | MIC (Klebsiella pneumoniae) [mg/L] | MIC (Escherichia coli) [mg/L] | MIC (Staphylococcus aureus [2]) [mg/L] | MIC (Staphylococcus aureus [3]) [mg/L] | SMILES
16 (≈ 32.7 µM) | 2 (≈ 4.09 µM) | 4 (≈ 8.19 µM) | 0.25 (≈ 0.512 µM) | 8 (≈ 16.4 µM) | Cc1ccc([S+]([O-])/C=C/C2=C(C(=O)O)N3C(=O)[C@@H](NC(=O)Cc4cccs4)[C@H]3SC2)cc1 (some centres undefined)
64 (≈ 123 µM) | 64 (≈ 123 µM) | 64 (≈ 123 µM) | 0.5 (≈ 0.962 µM) | – | O=C(Cc1cccs1)N[C@@H]1C(=O)N2C(C(=O)O)=C(/C=C/[S+]([O-])c3ccc([N+](=O)[O-])cc3)CS[C@H]12 (some centres undefined)
16 (≈ 38.8 µM) | 0.5 (≈ 1.21 µM) | 1 (≈ 2.42 µM) | 0.03 (≈ 0.0727 µM) | 4 (≈ 9.7 µM) | C[S+]([O-])/C=C/C1=C(C(=O)O)N2C(=O)[C@@H](NC(=O)Cc3cccs3)[C@H]2SC1 (some centres undefined)
